Test results published in patent US9650395B2, “Antibacterial compounds and methods for use” (PTC Therapeutics, Inc., priority 2011, dated 2017).
Converted amounts (≈) assume the structure as drawn. Like-named read-outs stand apart in the source and are kept apart here.

Experiments:
[1] = test system: E. coli ELZ4251 (MDR clinical isolate); test: Antibacterial activity, MIC, MDR E. coli ELZ4251; type: cell-based, Escherichia coli; settings: Escherichia coli, read-out: MIC ELZ4251
[2] = test system: super sensitive Gram-negative Escherichia coli (E. coli) BAS849; test: Antibacterial activity, microbroth dilution MIC, E. coli BAS849; type: cell-based; settings: Escherichia coli, read-out: MIC, BAS849
[3] = test system: control Gram-negative E. coli 25922 strain; test: Antibacterial activity, microbroth dilution MIC, E. coli 25922; type: cell-based, Escherichia coli; settings: Escherichia coli; E. coli 25922, microbroth dilution; read-out: MIC, 25922
[4] = test system: E. coli ELZ4000 (MDR clinical isolate); test: Antibacterial activity, MIC, MDR E. coli ELZ4000; type: cell-based, Escherichia coli; settings: Escherichia coli, read-out: MIC ELZ4000
[5] = test system: Klebsiella pneumoniae (K. pneumoniae) 35657; test: Antibacterial activity, MIC, K. pneumoniae 35657; type: cell-based; settings: Klebsiella pneumoniae
[6] = test system: Gram-positive Staphylococcus aureus (S. aureus) 29213; test: Antibacterial activity, microbroth dilution MIC, S. aureus 29213; type: cell-based; settings: Staphylococcus aureus; S. aureus 29213, microbroth dilution; read-out: MIC, 29213
[7] = test system: quinolone resistant E. coli LZ3111; test: Antibacterial activity, MIC, quinolone resistant E. coli LZ3111; type: cell-based, Escherichia coli; settings: Escherichia coli, read-out: MIC, LZ3111
From the text: (§1) The antibacterial activity from a microbroth dilution method may be presented as the minimum inhibitory concentration (MIC in […]). The MIC value is the lowest concentration of a drug which prevents macroscopically visible bacterial growth under test conditions.
Mutations in these regions are known to confer a high level resistance to the quinolone class of antibiotics.

[8] = test system: Pseudomonas aeruginosa (P. aeruginosa) 27853; test: Antibacterial activity, MIC, P. aeruginosa 27853; type: cell-based; settings: Pseudomonas aeruginosa, read-out: MIC 27853
From the text: as §1
Antibacterial activity of test compounds against the Gram-negative bacterium Pseudomonas aeruginosa (P. aeruginosa) 27853 is shown in Table 5.

[9] = test system: Acinetobacter baumannii (A. baumannii) BAA747; test: Antibacterial activity, MIC, A. baumannii BAA747; type: cell-based; settings: Acinetobacter baumannii
[10] = test system: Moraxella catarrhalis (M. catarrhalis) 25238; test: Antibacterial activity, MIC, M. catarrhalis 25238; type: cell-based; settings: Moraxella catarrhalis, read-out: MIC 25238
[11] = test system: Haemophilus influenzae (H. influenzae) 49247; test: Antibacterial activity, MIC, H. influenzae 49247; type: cell-based; settings: Haemophilus influenzae, read-out: MIC 49247
In short: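 A microbroth dilution method gave the minimum inhibitory concentration for each compound against H. influenzae 49247, a Gram-negative bacterium. MIC means the smallest concentration of drug at which no macroscopically visible bacterial growth appears under the conditions of the test.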

[12] = test system: Neisseria meningitidis (N. meningitidis) 13090; test: Antibacterial activity, MIC, N. meningitidis 13090; type: cell-based; settings: Neisseria meningitidis, read-out: MIC 13090
[13] = E. coli ELZ4251, MDR clinical isolate
[14] = E. coli BAS849, microbroth dilution
[15] = E. coli ELZ4000, MDR clinical isolate
[16] = A. baumannii BAA747, read-out: MIC BAA747

Structure (SMILES) | MIC [1, 13] [µg/mL] | MIC [2, 14] [µg/mL] | MIC [3] [µg/mL] | MIC [4, 15] [µg/mL] | MIC [5] [µg/mL] | MIC [6] [µg/mL] | MIC [7] [µg/mL] | MIC ([8]; P. aeruginosa 27853) [µg/mL] | MIC [9, 16] [µg/mL] | MIC ([10]; M. catarrhalis 25238) [µg/mL] | MIC ([11]; H. influenzae 49247) [µg/mL] | MIC ([12]; N. meningitidis 13090) [µg/mL] | MIC [1] [µg/mL] | MIC ([9]; BAA747, read-out: MIC BAA747) [µg/mL] | MIC [2] [µg/mL] | MIC [4] [µg/mL] | MIC [10] [µg/mL] | MIC [11] [µg/mL] | MIC [8] [µg/mL] | MIC [12] [µg/mL]
Cc1cc(C(=O)O)c(=O)[nH]c1-c1ccc(N(C)C)cc1 [Cpd 4, 6-[4-(dimethylamino)phenyl]-5-methyl-2-oxo-1,2-dihydropyridine-3-carboxylic acid] | 12.5 to 150 (≈ 45.9 to 551 µM) | < 1 | 12.5 to 150 (≈ 45.9 to 551 µM) | 12.5 to 150 (≈ 45.9 to 551 µM) | 3.5 to 12.5 (≈ 12.9 to 45.9 µM) | 12.5 to 150 (≈ 45.9 to 551 µM) | 12.5 to 150 (≈ 45.9 to 551 µM) | 12.5 to 150 (≈ 45.9 to 551 µM) |  |  |  |  |  |  |  |  |  |  |  | 
CCc1cc(C(=O)O)c(=O)[nH]c1-c1ccccc1 [Cpd 75, 5-ethyl-2-oxo-6-phenyl-1,2-dihydropyridine-3-carboxylic acid] | 12.5 to 150 (≈ 51.4 to 617 µM) | 1 to 3.5 (≈ 4.11 to 14.4 µM) | 12.5 to 150 (≈ 51.4 to 617 µM) | 12.5 to 150 (≈ 51.4 to 617 µM) |  | 12.5 to 150 (≈ 51.4 to 617 µM) | 12.5 to 150 (≈ 51.4 to 617 µM) | 12.5 to 150 (≈ 51.4 to 617 µM) | 12.5 to 150 (≈ 51.4 to 617 µM) | 12.5 to 150 (≈ 51.4 to 617 µM) |  |  |  |  |  |  |  |  |  | 
CCc1cc(C(=O)O)c(=O)[nH]c1-c1ccc(N2CCOCC2)c(F)c1 [Cpd 84, 5-ethyl-6-[3-fluoro-4-(morpholin-4-yl)phenyl]-2-oxo-1,2-dihydropyridine-3-carboxylic acid] | 12.5 to 150 (≈ 36.1 to 433 µM) | 3.5 to 12.5 (≈ 10.1 to 36.1 µM) | 12.5 to 150 (≈ 36.1 to 433 µM) | 12.5 to 150 (≈ 36.1 to 433 µM) |  | 12.5 to 150 (≈ 36.1 to 433 µM) | 12.5 to 150 (≈ 36.1 to 433 µM) | 12.5 to 150 (≈ 36.1 to 433 µM) | 12.5 to 150 (≈ 36.1 to 433 µM) | 3.5 to 12.5 (≈ 10.1 to 36.1 µM) | < 1 | 1 to 3.5 (≈ 2.89 to 10.1 µM) |  |  |  |  |  |  |  | 
CCc1cc(C(=O)O)c(=O)[nH]c1-c1ccc(N2CCNCC2)c(F)c1.O=C(O)C(F)(F)F [Cpd 92, 5-ethyl-6-[3-fluoro-4-(piperazin-1-yl)phenyl]-2-oxo-1,2-dihydropyridine-3-carboxylic acid trifluoroacetate] |  |  | 12.5 to 150 |  |  | 12.5 to 150 | 12.5 to 150 |  |  |  |  |  | 12.5 to 150 | 12.5 to 150 | 12.5 to 150 | 12.5 to 150 | 12.5 to 150 | 1 to 3.5 | 12.5 to 150 | 3.5 to 12.5
CC(C)c1cc(C(=O)O)c(=O)[nH]c1-c1ccc(N(C)C)cc1 [Cpd 95, 6-[4-(dimethylamino)phenyl]-2-oxo-5-(propan-2-yl)-1,2-dihydropyridine-3-carboxylic acid] | 12.5 to 150 (≈ 41.6 to 499 µM) | < 1 | 3.5 to 12.5 (≈ 11.7 to 41.6 µM) | 12.5 to 150 (≈ 41.6 to 499 µM) | 12.5 to 150 (≈ 41.6 to 499 µM) | 12.5 to 150 (≈ 41.6 to 499 µM) | 12.5 to 150 (≈ 41.6 to 499 µM) | 12.5 to 150 (≈ 41.6 to 499 µM) |  | < 1 | < 1 | < 1 |  |  |  |  |  |  |  | 
CCc1cc(C(=O)O)c(=O)[nH]c1-c1ccc(N(CC)CC)cc1 [Cpd 97, 6-[4-(diethylamino)phenyl]-5-ethyl-2-oxo-1,2-dihydropyridine-3-carboxylic acid] | 12.5 to 150 (≈ 39.8 to 477 µM) | < 1 | 3.5 to 12.5 (≈ 11.1 to 39.8 µM) | 12.5 to 150 (≈ 39.8 to 477 µM) | 3.5 to 12.5 (≈ 11.1 to 39.8 µM) | 12.5 to 150 (≈ 39.8 to 477 µM) | 12.5 to 150 (≈ 39.8 to 477 µM) | 12.5 to 150 (≈ 39.8 to 477 µM) |  | < 1 | < 1 | < 1 |  |  |  |  |  |  |  | 
CCc1cc(C(=O)O)c(=O)[nH]c1-c1ccc(N2CCCC2)cc1 [Cpd 99, 5-ethyl-2-oxo-6-[4-(pyrrolidin-1-yl)phenyl]-1,2-dihydropyridine-3-carboxylic acid] | 12.5 to 150 (≈ 40 to 480 µM) | < 1 | < 1 | 12.5 to 150 (≈ 40 to 480 µM) | 3.5 to 12.5 (≈ 11.2 to 40 µM) | 1 to 3.5 (≈ 3.2 to 11.2 µM) | 12.5 to 150 (≈ 40 to 480 µM) | 3.5 to 12.5 (≈ 11.2 to 40 µM) |  | < 1 | < 1 | < 1 |  |  |  |  |  |  |  | 
CCc1c(-c2ccc(N3CCCC3)cc2)[nH]c(=O)c(C(=O)O)c1O [Cpd 100, 5-ethyl-4-hydroxy-2-oxo-6-[4-(pyrrolidin-1-yl)phenyl]-1,2-dihydropyridine-3-carboxylic acid] | 12.5 to 150 (≈ 38.1 to 457 µM) | < 1 | 3.5 to 12.5 (≈ 10.7 to 38.1 µM) | 12.5 to 150 (≈ 38.1 to 457 µM) | 12.5 to 150 (≈ 38.1 to 457 µM) | 1 to 3.5 (≈ 3.05 to 10.7 µM) | 12.5 to 150 (≈ 38.1 to 457 µM) | 12.5 to 150 (≈ 38.1 to 457 µM) |  | < 1 | < 1 | < 1 |  |  |  |  |  |  |  | 
